# Experimental data published in article PMC11672400, “Synthesis, Spectroscopic Characterization, Structural Analysis, and Evaluation of Anti-Tumor, Antimicrobial, and Antibiofilm Activities of Halogenoaminopyrazoles Derivatives” (Antibiotics, 2024).
# Where two headings read alike, the source gives them in different places.
# What was measured:
# [1] = system: HEp-2 epithelial tumor cells; experiment: MTT cell viability / anti-tumor activity; details: Homo sapiens, read-out: Cell viability on Hep2 cells (%)
# [2] = system: Pseudomonas aeruginosa ATCC27853; experiment: MIC by serial microdilution in liquid medium; assay type: cell-based; details: Pseudomonas aeruginosa, ATCC27853; 24 h, 37 °C; read-out: Minimum inhibitory concentration, Pseudomonas aeruginosa ATCC27853
# Procedure: (§1) The minimum inhibitory concentrations (MIC) were determined by the serial microdilution method in a liquid medium (Tryptone Soy Broth), on 96-well plates. Serial binary dilutions of the compound stock solution (10 mg/mL in DMSO) were carried out in 90 µL of culture medium and 10 µL of 10^6 CFU/mL (Colony Forming Units) microbial suspension. Each test included a positive control (wells with culture medium and microbial suspension) and a negative control for medium sterility. After incubation at 37 °C for 24 h the plates were visually examined, and optical density was measured at 620 nm. […] The MIC value (µg/mL) for the chemical compound was determined by the concentration in the final well without bacterial growth. All experiments were performed in triplicate.
# [3] = system: Enterococcus faecalis ATCC29212; experiment: MIC by serial microdilution in liquid medium; assay type: cell-based; details: Enterococcus faecalis, ATCC29212; 24 h, 37 °C; read-out: Minimum inhibitory concentration, Enterococcus faecalis ATCC29212
# Procedure: as §1
# [4] = system: Staphylococcus aureus ATCC25923; experiment: MIC by serial microdilution in liquid medium; assay type: cell-based; details: Staphylococcus aureus, ATCC25923; 24 h, 37 °C; read-out: Minimum inhibitory concentration, Staphylococcus aureus ATCC25923
# Procedure: as §1
# [5] = system: Escherichia coli ATCC25922; experiment: MIC by serial microdilution in liquid medium; assay type: cell-based; details: Escherichia coli, ATCC25922; 24 h, 37 °C; read-out: Minimum inhibitory concentration, Escherichia coli ATCC25922
# Procedure: as §1
# [6] = system: Pseudomonas aeruginosa ATCC27853; experiment: Antibiofilm assay (crystal violet), MBIC; assay type: cell-based; details: 37 °C; for minimal effective concentration: Pseudomonas aeruginosa, ATCC27853, 24 h, read-out: Minimum biofilm inhibition concentration (MBIC), Pseudomonas aeruginosa ATCC27853
# Procedure: (§2) Microorganisms were grown in 96-well plates filled with nutrient broth along with test substances, followed by incubation at 37 °C for 24 h. Plates were cleaned and rinsed thrice using SPW solution (sterile physiological water). After that, the attached cells were treated with 110 μL of methanol for 5 min, and then the methanol was removed by turning it upside down. […] Once stained, the solution was removed, and the plates were washed with running tap water. […] The antimicrobial/antibiofilm activity of the compounds was evaluated against two antibiotics, commercial formulations of metronidazole and nitrofurantoin.
# [7] = system: Enterococcus faecalis ATCC29212; experiment: Antibiofilm assay (crystal violet), MBIC; assay type: cell-based; details: Enterococcus faecalis, ATCC29212, 24 h, 37 °C, read-out: Minimum biofilm inhibition concentration (MBIC), Enterococcus faecalis ATCC29212
# Procedure: as §2
# [8] = system: Staphylococcus aureus ATCC25923; experiment: Antibiofilm assay (crystal violet), MBIC; assay type: cell-based; details: Staphylococcus aureus, ATCC25923; 24 h, 37 °C; read-out: Minimum biofilm inhibition concentration (MBIC), Staphylococcus aureus ATCC25923
# Procedure: as §2
# [9] = system: Escherichia coli ATCC25922; experiment: Antibiofilm assay (crystal violet), MBIC; assay type: cell-based; details: Escherichia coli, ATCC25922, 24 h, 37 °C, read-out: Minimum biofilm inhibition concentration (MBIC), Escherichia coli ATCC25922
# Procedure: as §2
# [10] = MTT cell viability / cytotoxicity on normal fibroblasts; assay type: cell-based, mouse; details: mouse, NCTC clone 929 (L929) mouse fibroblast cells
# Source text: Merck chemicals were utilized.
# Untreated cells were used as control, considered 100% viable cells.
# [11] = system: Pseudomonas aeruginosa ATCC27853; experiment: Qualitative evaluation of antimicrobial activity (inhibition zone, spot on agar); assay type: cell-based; parameters: key: (+) inhibited bacterial growth; (-) did not inhibit bacterial growth; details: 0.06 g/2 mL DMSO, 5 µL spot
# Procedure: (§3) For testing the antimicrobial/antibiofilm activity, the concentration of the studied compounds was identical to 0.06 g/2 mL DMSO. 0.5 Standard McFarland suspension was used, which was inoculated onto Mueller Hinton agar plates, (Remel, Lenexa, KS, USA), 5 µL of each compound was spotted and incubated overnight at 37 °C. Antimicrobial activity was observed as zones of inhibition formed around the spot.
# [12] = system: Enterococcus faecalis ATCC29212; experiment: as above; assay type: cell-based; parameters: key: (+) inhibited bacterial growth; (-) did not inhibit bacterial growth; details: 0.06 g/2 mL DMSO, 5 µL spot
# Procedure: as §3
# [13] = system: Staphylococcus aureus ATCC25923; experiment: as above; assay type: cell-based; parameters: key: (+) inhibited bacterial growth; (-) did not inhibit bacterial growth; details: 0.06 g/2 mL DMSO, 5 µL spot
# Procedure: as §3
# [14] = system: Escherichia coli ATCC25922; experiment: as above; assay type: cell-based; parameters: key: (+) inhibited bacterial growth; (-) did not inhibit bacterial growth; details: 0.06 g/2 mL DMSO, 5 µL spot
# Procedure: as §3
SMILES,melting point [°C],"viability at 3.1 µg/mL ([1]; HEp-2, 24 h) [%]","viability at 6.25 µg/mL ([1]; HEp-2, 24 h) [%]","viability at 12.5 µg/mL ([1]; HEp-2, 24 h) [%]","viability at 25 µg/mL ([1]; HEp-2, 24 h) [%]","viability at 50 µg/mL ([1]; HEp-2, 24 h) [%]","viability at 3.1 µg/mL ([1]; HEp-2, 48 h) [%]","viability at 6.25 µg/mL ([1]; HEp-2, 48 h) [%]","viability at 12.5 µg/mL ([1]; HEp-2, 48 h) [%]","viability at 25 µg/mL ([1]; HEp-2, 48 h) [%]","viability at 50 µg/mL ([1]; HEp-2, 48 h) [%]",MIC [2] [µg/mL],MIC [3] [µg/mL],MIC [4] [µg/mL],MIC [5] [µg/mL],minimal effective concentration [6] [µg/mL],minimal effective concentration [7] [µg/mL],minimal effective concentration [8] [µg/mL],minimal effective concentration [9] [µg/mL],"viability at 24 h, 3.1 µg/mL [10] [%]",further results
"Cc1nn(CNc2ccc(Br)cc2)c(C)c1[N+](=O)[O-] [4c, N-[(3,5-dimetyl-4-nitro-1H-pyrazol-1-yl)-methyl]-4-bromoaniline]",118 to 120,101 ± 2.04,103 ± 2.31,100 ± 3.15,98.7 ± 1.83,92.64 ± 0.9,116 ± 2.55,104.2 ± 0.88,99.6 ± 2.32,82.6 ± 3.28,70.2 ± 1.91,930 ± 1.08,930 ± 0.03,930 ± 0.04,930 ± 1.05,930 ± 0.52,930 ± 1.09,930 ± 0.06,930 ± 0.11,99.2 ± 0.97,"viability at 48 h, 3.1 µg/mL [10]: 99.67 ± 0.71%; viability at 24 h, 6.25 µg/mL [10]: 97.1 ± 3.04%; viability at 48 h, 6.25 µg/mL [10]: 98.8 ± 1.92%; viability at 24 h, 12.5 µg/mL [10]: 95.6 ± 0.62%; viability at 48 h, 12.5 µg/mL [10]: 97.2 ± 3.5%; viability at 24 h, 25 µg/mL [10]: 95.5 ± 2.14%; viability at 48 h, 25 µg/mL [10]: 95.6 ± 2.93%; viability at 24 h, 50 µg/mL [10]: 91.1 ± 3.04%; viability at 48 h, 50 µg/mL [10]: 81.5 ± 3.26%; Qualitative antimicrobial activity, Pseudomonas aeruginosa ATCC27853 [11]: -; Qualitative antimicrobial activity, Enterococcus faecalis ATCC29212 [12]: -; Qualitative antimicrobial activity, Staphylococcus aureus ATCC25923 [13]: -; Qualitative antimicrobial activity, Escherichia coli ATCC25922 [14]: -"
"Cc1nn(CNc2ccc(I)cc2)c(C)c1[N+](=O)[O-] [4d, N-[(3,5-dimetyl-4-nitro-1H-pyrazol-1-yl)-methyl]-4-iodoaniline]",91 to 92,105 ± 1.93,110 ± 2.64,113 ± 3.48,109 ± 2.75,106 ± 1.63,101 ± 3.72,110 ± 3.49,111 ± 2.8,101.6 ± 0.56,69 ± 0.81,930 ± 0.02,930 ± 0.53,930 ± 0.55,930 ± 0.1,460,930 ± 0.53,930 ± 0.03,930 ± 0.18,99.9 ± 2.31,"Minimum biofilm inhibition concentration (MBIC), Pseudomonas aeruginosa ATCC27853 ([6]; 24 h): 460 ± 0.05 µg/mL; viability at 48 h, 3.1 µg/mL [10]: 95.69 ± 0.8%; viability at 24 h, 6.25 µg/mL [10]: 101 ± 2.24%; viability at 48 h, 6.25 µg/mL [10]: 96.26 ± 0.78%; viability at 24 h, 12.5 µg/mL [10]: 103 ± 3.44%; viability at 48 h, 12.5 µg/mL [10]: 92.6 ± 1.4%; viability at 24 h, 25 µg/mL [10]: 102 ± 1.07%; viability at 48 h, 25 µg/mL [10]: 91.5 ± 1.41%; viability at 24 h, 50 µg/mL [10]: 101 ± 2.55%; viability at 48 h, 50 µg/mL [10]: 88.2 ± 2.1%; Qualitative antimicrobial activity, Pseudomonas aeruginosa ATCC27853 [11]: -; Qualitative antimicrobial activity, Enterococcus faecalis ATCC29212 [12]: -; Qualitative antimicrobial activity, Staphylococcus aureus ATCC25923 [13]: -; Qualitative antimicrobial activity, Escherichia coli ATCC25922 [14]: -"
